The values below are quoted from earlier work in US12102063B2 (SYNEXIS LLC, priority 2017, dated 2024).

The test system of one data set is Salmonella typhimurium. As to conditions: eggs dipped twice in 6% H2O2 solution; cited from earlier work.
The subject of the next data set is Salmonella. The conditions noted are these: […] solution with vacuum and surfactant; cited from earlier work.
For data set [1], the system named is bacterial counts on eggshells. The conditions noted are these: 3% solution combined with ultraviolet light; cited from earlier work.

Turning to `OO` [H2O2, hydrogen peroxide], in the data set on Salmonella typhimurium, the “reduction of the number of Salmonella in eggshell membranes” value was 95% and the “reduction of the numbers of positive eggs” value was 55%. In addition, in the data set with Salmonella, the “treated eggs that remained contaminated” value was 30%. Besides, the “reduction in bacterial counts (cfu/egg)” value in data set [1] is not above 3 log.
